Assays:
EGFR-Del19/T790M/C797S = experiment: EGFR degradation HTRF assay in H1975-clone #28 cells; type: cell-based; details: H1975-clone #28 (Del19/T790M/C797S) cells, 16 h treatment; for DC50: IC50 (DC50), read-out: DC50(nM) H1975 # 28 DTC; for Dmax (%) H1975 # 28 DTC: maximum percentage of inhibition (degradation)
Method: (§1) H1975-clone #28(Del19/T790M/C797S) and H1975-clone #25(L858R/T790M/C797S). EGFR-Del19/T790M/C797S and EGFR-L858R/T790M/C797S were stably expressed in H1975 cell lines by lentivirus-mediated over-expression, respectively. The EGFR over-expressed cells then underwent knockout, in which the EGFR targeting sgRNA was designed to only target the endogenous EGFR copies and preserve the exogenous EGFR copies. Followed by knockout, the edited H1975 cells were seeded in 96 well plates at the concentration of […], cultured for about 2 weeks to allow single clones formation. The formed clones were screened by DNA sequencing and whole exon sequencing analysis for the desired edition.
(§2) H1975-clone #28, and H1975-clone #25 were finally confirmed as homozygous Del19/T790M/C797S EGFR, and L858R/T790M/C797S EGFR clones, respectively.
(§3) H1975-#25 and H1975-#28 cells are treated with compounds diluted in 0.2% DMSO cell culture medium on day 2, incubate for 16 h, 37° C., 5% CO2. the final concentration of compounds in all assay is start with 10 uM, 5-fold dilution, total 8 doses were included.
(§4) After 16 h treatment, add HTRF lysis buffer to each well; seal the plate and incubate 1 hour at room temperature on a plate shaker; Once the cells are lysed, 16 μL of cell lysate are transferred to a PE 384-well HTRF detection plate; 4 μL of pre-mixed HTRF antibodies are added to each well; Cover the plate with a plate sealer, spin 1000 rpm for 1 min, Incubate overnight at room temperature; Read on BMG PheraStar with HTRF protocol (337 nm-665 nm-620 nm).
(§5) The inhibition (degradation) percentage of the compound was calculated by the following equation:
(§6) Inhibition percentage of Compound=100−100×(Signal−low control)/(High control−low control),
(§7) The IC50 (DC50) value of a compound can be obtained by fitting the following equation
(§8) Wherein, X and Y are known values, and IC50, Hillslope, Top and Bottom are the parameters obtained by fitting with software. Y is the inhibition percentage (calculated from the equation), X is the concentration of the compound; IC50 is the concentration of the compound when the 50% inhibition is reached. The smaller the IC50 value is, the stronger the inhibitory ability of the compound is. Vice versa, the higher the IC50 value is, the weaker the ability the inhibitory ability of the compound is; Hillslope represents the slope of the fitted curve, generally around 1 *; Bottom represents the minimum value of the curve obtained by data fitting, which is generally 0%±20%; Top represents the maximum value of the curve obtained by data fitting, which is generally 100%±20%. The experimental data were fitted by calculating and analyzing with Dotmatics data analysis software.

EGFR-L858R/T790M/C797S = target: T1, EGFR-L858R/T790M/C797S (Homo sapiens, UniProt P00533, C797S/L858R/T790M); experiment: EGFR degradation HTRF assay in H1975-clone #25 cells; type: cell-based; details: 16 h treatment; for DC50: H1975-clone #25 (L858R/T790M/C797S) cells, IC50 (DC50), read-out: DC50(nM) H1975 # 25-LTC; for Dmax: NCI-H1975, H1975-clone #25 (L858R/T790M/C797S) cells, maximum percentage of inhibition (degradation), read-out: Dmax (%) H1975 # 25-LTC
T1 construct: expressed in transfected cells; host or cells: H1975-clone #25 (lentiviral over-expression, endogenous EGFR knocked out)
T1 sequence (P00533 25-1210 T790M/C797S/L858R): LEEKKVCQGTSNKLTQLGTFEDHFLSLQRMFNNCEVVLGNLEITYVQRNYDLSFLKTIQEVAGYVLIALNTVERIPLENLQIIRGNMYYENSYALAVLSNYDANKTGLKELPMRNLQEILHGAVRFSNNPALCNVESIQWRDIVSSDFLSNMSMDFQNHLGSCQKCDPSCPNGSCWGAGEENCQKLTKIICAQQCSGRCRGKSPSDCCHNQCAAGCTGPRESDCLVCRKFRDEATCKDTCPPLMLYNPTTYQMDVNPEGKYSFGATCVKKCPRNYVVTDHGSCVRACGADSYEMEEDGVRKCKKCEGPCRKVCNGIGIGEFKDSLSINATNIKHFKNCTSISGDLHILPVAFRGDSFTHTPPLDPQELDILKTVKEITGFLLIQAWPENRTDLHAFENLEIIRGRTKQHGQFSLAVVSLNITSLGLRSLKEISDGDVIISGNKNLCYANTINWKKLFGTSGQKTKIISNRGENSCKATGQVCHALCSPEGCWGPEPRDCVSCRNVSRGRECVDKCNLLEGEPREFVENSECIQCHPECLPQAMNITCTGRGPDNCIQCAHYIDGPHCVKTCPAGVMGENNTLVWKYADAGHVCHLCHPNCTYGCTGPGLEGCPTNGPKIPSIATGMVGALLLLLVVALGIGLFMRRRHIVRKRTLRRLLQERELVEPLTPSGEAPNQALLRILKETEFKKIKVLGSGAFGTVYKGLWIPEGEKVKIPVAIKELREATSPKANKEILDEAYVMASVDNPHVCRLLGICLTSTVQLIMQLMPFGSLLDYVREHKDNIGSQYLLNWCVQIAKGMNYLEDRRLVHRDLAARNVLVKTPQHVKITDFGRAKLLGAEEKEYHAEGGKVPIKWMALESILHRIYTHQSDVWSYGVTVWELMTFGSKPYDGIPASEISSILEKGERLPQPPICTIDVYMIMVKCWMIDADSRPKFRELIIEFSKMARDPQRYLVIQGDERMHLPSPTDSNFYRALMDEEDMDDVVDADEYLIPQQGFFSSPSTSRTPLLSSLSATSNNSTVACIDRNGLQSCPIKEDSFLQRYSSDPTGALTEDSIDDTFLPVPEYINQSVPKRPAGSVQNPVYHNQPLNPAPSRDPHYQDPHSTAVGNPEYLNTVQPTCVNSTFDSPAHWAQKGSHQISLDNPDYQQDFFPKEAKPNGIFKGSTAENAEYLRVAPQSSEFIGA
Method: as §1, §2, §3, §4, §5, §6, §7, §8

SMILES	DC50 (EGFR-Del19/T790M/C797S) [nM]	Dmax (%) H1975 # 28 DTC (EGFR-Del19/T790M/C797S) [%]	DC50 (EGFR-L858R/T790M/C797S) [nM]	Dmax (EGFR-L858R/T790M/C797S) [%]
CCc1ncc2c(P(C)(C)=O)c(Nc3nc(Nc4cc(CC)c(N5CCC6(CCN(CCc7cc(F)c([C@H]8CCC(=O)NC8=O)c(F)c7)CC6)CC5)cc4OC)ncc3Br)ccc2n1 [Example 40, (R)-3-(4-(2-(9-(4-((5-bromo-4-((5-(dimethylphosphoryl)-2-ethylquinazolin-6-yl)amino)pyrimidin-2-yl)amino)-2-ethyl-5-methoxyphenyl)-3,9-diazaspiro[5.5]undecan-3-yl)ethyl)-2,6-difluorophenyl)piperidine-2,6-dione]	2.4	88	6	86
CCc1cc(Nc2ncc(Br)c(Nc3ccc4nc(C)c(F)cc4c3P(C)(C)=O)n2)c(OC)cc1N1CCC(N2CC3(CN(c4cc(F)c([C@H]5CCC(=O)NC5=O)c(F)c4)C3)C2)CC1 [Example 60, (R)-3-(4-(6-(1-(4-((5-bromo-4-((5-(dimethylphosphoryl)-3-fluoro-2-methylquinolin-6-yl)amino)pyrimidin-2-yl)amino)-2-ethyl-5-methoxyphenyl)piperidin-4-yl)-26-diazaspiro[3.3]heptan-2-yl)-2,6-difluorophenyl)piperidine-2,6-dione]	0.5	95	1.1	95
CCc1cc(Nc2ncc(Br)c(Nc3ccc4nc(C)c(F)cc4c3P(C)(C)=O)n2)c(OC)cc1N1CCC2(CCN(CCc3cc(F)c([C@H]4CCC(=O)NC4=O)c(F)c3)CC2)CC1 [Example 6, (R)-3-(4-(2-(9-(4-((5-bromo-4-((5-(dimethylphosphoryl)-3-fluoro-2-methylquinolin-6-yl)amino)pyrimidin-2-yl)amino)-2-ethyl-5-methoxyphenyl)-3,9-diazaspiro[5.5]undecan-3-yl)ethyl)-2,6-difluorophenyl)piperidine-2,6-dione]	3.1	80	9	89
CCOc1cc(N2CCC(N3CCN(C4CCN(c5cc(F)c([C@H]6CCC(=O)NC6=O)c(F)c5)CC4)CC3)CC2)c(CC)cc1Nc1ncc(Cl)c(Nc2ccc3nc(C)c(F)cc3c2P(C)(C)=O)n1 [Example 54, (R)-3-(4-(4-(4-(1-(4-((5-chloro-4-((5-(dimethylphosphoryl)-3-fluoro-2-methylquinolin-6-yl)amino)pyrimidin-2-yl)amino)-5-ethoxy-2-ethylphenyl)piperidin-4-yl)piperazin-1-yl)piperidin-1-yl)-2,6-difluorophenyl)piperidine-2,6-dione]	3.6	86	3.6	88
CCc1cc(Nc2ncc(Br)c(Nc3ccc4nc(C)c(F)cc4c3P(C)(C)=O)n2)c(OC)cc1N1CCC2(CCN(CCN(C)c3cccc4c3CN(C3CCC(=O)NC3=O)C4=O)CC2)CC1 (stereo not drawn) [Example 34, 3-(4-((2-(9-(4-((5-bromo-4-((5-(dimethylphosphoryl)-3-fluoro-2-methylquinolin-6-yl)amino)pyrimidin-2-yl)amino)-2-ethyl-5-methoxyphenyl)-3,9-diazaspiro[5.5]undecan-3-yl)ethyl)(methyl)amino)-1-oxoisoindolin-2-yl)piperidine-2,6-dione]	2.5	80	2.8	89
CCc1ccc2c(P(C)(C)=O)c(Nc3nc(Nc4cc(CC)c(N5CCC(N6CCC(N7CCN(c8cc(F)c([C@H]9CCC(=O)NC9=O)c(F)c8)CC7)CC6)CC5)cc4OC)ncc3Br)ccc2n1 (single isomer, unassigned) [Example 11]	1.8	88	0.9	94
CCOc1cc(N2CCC(N3CC(N4CCC(c5cc(F)c([C@H]6CCC(=O)NC6=O)c(F)c5)CC4)C3)CC2)c(CC)cc1Nc1ncc(Cl)c(Nc2ccc3nc(C)c(F)cc3c2P(C)(C)=O)n1 [Example 15, (R)-3-(4-(1-(1-(1-(4-((5-chloro-4-((5-(dimethylphosphoryl)-3-fluoro-2-methylquinolin-6-yl)amino)pyrimidin-2-yl)amino)-5-ethoxy-2-ethylphenyl)piperidin-4-yl)azetidin-3-yl)piperidin-4-yl)-2,6-difluorophenyl)piperidine-2,6-dione]	2.7	95	3.3	94
CCc1cc(Nc2ncc(Br)c(Nc3ccc4nc(C)c(F)cc4c3P(C)(C)=O)n2)c(OC)cc1N1CCC2(CCN(CC3CCN(c4cc(F)c([C@H]5CCC(=O)NC5=O)c(F)c4)CC3)CC2)CC1 [Example 79, (R)-3-(4-(4-((9-(4-((5-bromo-4-((5-(dimethylphosphoryl)-3-fluoro-2-methylquinolin-6-yl)amino)pyrimidin-2-yl)amino)-2-ethyl-5-methoxyphenyl)-3,9-diazaspiro[5.5]undecan-3-yl)methyl)piperidin-1-yl)-2,6-difluorophenyl)piperidine-2,6-dione]	6.6	90	3.3	95
COc1cc(N2CCC3(CCN(CC4CCN(c5ccc6c(c5)CN(C5CCC(=O)NC5=O)C6=O)CC4)CC3)CC2)c(C)cc1Nc1ncc(Br)c(Nc2ccc3nc(C)ccc3c2P(C)(C)=O)n1 (stereo not drawn) [Example 72, 3-(5-(4-((9-(4-((5-bromo-4-((5-(dimethylphosphoryl)-2-methylquinolin-6-yl)amino)pyrimidin-2-yl)amino)-5-methoxy-2-methylphenyl)-3,9-diazaspiro[5.5]undecan-3-yl)methyl)piperidin-1-yl)-1-oxoisoindolin-2-yl)piperidine-2,6-dione]	1.8	82	2	82
CCc1ncc2c(P(C)(C)=O)c(Nc3nc(Nc4cc(CC)c(N5CCC(N6CCN(CC7CCN(c8ccc9c(c8)CN(C8CCC(=O)NC8=O)C9=O)CC7)CC6)CC5)cc4OC)ncc3Br)ccc2n1 (stereo not drawn) [Example 35, 3-(5-(4-((4-(1-(4-((5-bromo-4-((5-(dimethylphosphoryl)-2-ethylquinazolin-6-yl)amino)pyrimidin-2-yl)amino)-2-ethyl-5-methoxyphenyl)piperidin-4-yl)piperazin-1-yl)methyl)piperidin-1-yl)-1-oxoisoindolin-2-yl)piperidine-2,6-dione]	1.2	79	1.3	83
CCc1cc(Nc2ncc(Br)c(Nc3ccc4nc(C)c(F)cc4c3P(C)(C)=O)n2)c(OC)cc1N1CCC2(CCN(CC3CCN(c4cc5c(cc4F)C(=O)N(C4CCC(=O)NC4=O)C5=O)CC3)CC2)CC1 (stereo not drawn) [Example 47, 5-(4-((9-(4-((5-bromo-4-((5-(dimethylphosphoryl)-3-fluoro-2-methylquinolin-6-yl)amino)pyrimidin-2-yl)amino)-2-ethyl-5-methoxyphenyl)-3,9-diazaspiro[5.5]undecan-3-yl)methyl)piperidin-1-yl)-2-(2,6-dioxopiperidin-3-yl)-6-fluoroisoindoline-1,3-dione]	14.3	73	16	88
CCc1cc(Nc2ncc(Br)c(Nc3ccc4nc(C)c(F)cc4c3P(C)(C)=O)n2)c(OC)cc1N1CCC2(CC1)CCN(C1CC(c3cc(F)c([C@H]4CCC(=O)NC4=O)c(F)c3)C1)CC2 (single isomer, unassigned) [Example 5]	3.1	90	3.7	92

— US20240368203A1, “DEGRADATION OF (EGFR) BY CONJUGATION OF EGFR INHIBITORS WITH E3 LIGASE LIGAND AND METHODS OF USE” (BeiGene, Ltd., priority 2022, published 2024)
